Test system: SK-RC-52.hFAP tumors
Assay: Quantitative biodistribution in SK-RC-52.hFAP tumor bearing mice
Type: in vivo, mouse (female athymic Balb/c AnNRj-Foxn1)
Settings: i.v. 250 nmol/kg, 50 MBq/kg
Description: SK-RC-52.hFAP were grown to 80% confluence in RPMI-1640 with 10% fetal bovine serum (FBS) and 1% antibiotic-antimycotic and detached with Trypsin-EDTA (ethylenediaminetetraacetic acid) 0.05%. Tumor cells were resuspended in Hanks' Balanced Salt Solution medium. Aliquots of 5 million cells (100 μL of suspension) were injected subcutaneously in the right flank of female athymic Balb/c AnNRj-Foxn1 mice (6 to 8 wk of age).
Radiolabeling of ESV6-DOTAGA, Bi-ESV6-DOTAGA, Tri-ESV6-DOTAGA, Tetra-ESV6-DOTAGA, Hexa-ESV6-DOTAGA, Octa-ESV6-DOTAGA and FAP-2286 with lutetium-177 (a therapeutic radionuclide) was performed with different specific activities for three different studies (biodistribution, therapy and dose optimization).
Prior to the biodistribution study, precursors (100 nmol) were dissolved in 100 μL of milliQ water and diluted with 200 μL of sodium acetate (1 M in water, pH=4.5). 20 MBq of ^177Lu solution were added and the mixture was heated at 90 °C for 10 minutes, followed by dilution with […] of PBS to achieve final volume of 2 mL (20 doses of 100 μL each).
ESV6-DOTAGA, Bi-ESV6-DOTAGA, Tri-ESV6-DOTAGA, Tetra-ESV6-DOTAGA, Hexa-ESV6-DOTAGA, Octa-ESV6-DOTAGA and FAP-2286 were radiolabeled with ^177Lu as described above. Tumors were allowed to grow to an average volume of 300 mm^3. Mice were randomized and injected intravenously with radiolabeled preparations of ^177Lu-ESV6, ^177Lu-Bi-ESV6, ^177Lu-Tri-ESV6, Tetra-ESV6-DOTAGA, Hexa-ESV6-DOTAGA, Octa-ESV6-DOTAGA or ^177Lu-FAP-2286 (250 nmol/kg; 50 MBq/kg). Mice were euthanized at different time-points after the intravenous injection by CO2 asphyxiation. Tumors, organs, and blood were collected, weighted, and radioactivity was measured with a Packard Cobra Gamma Counter. Values are expressed as percent ID/g±SD [FIG. 4]. The % ID/g in the tumors was corrected considering the SK-RC-52.hFAP tumor growth rate.
Quantitative in vivo biodistribution of ^177Lu-ESV6-DOTAGA, ^177Lu-Bi-ESV6-DOTAGA, ^177Lu-Tri-ESV6-DOTAGA, ^177Lu-FAP-2286, Tetra-ESV6-DOTAGA, Hexa-ESV6-DOTAGA and Octa-ESV6-DOTAGA at different time points after intravenous administration (250 nmol/kg, 50 MBq/kg) in mice bearing SK-RC-52.hFAP tumors, are shown in Tables 1 to 4 and 10 to 12. Data are reported as % ID/g±standard deviation.
Tumor-to-organ ratios of ^177Lu-ESV6-DOTAGA, ^177Lu-Bi-ESV6-DOTAGA, ^177Lu-Tri-ESV6-DOTAGA, ^177Lu-FAP-2286, Tetra-ESV6-DOTAGA, Hexa-ESV6-DOTAGA and Octa-ESV6-DOTAGA, at different time points after intravenous administration (250 nmol/kg, 50 MBq/kg) in mice bearing SK-RC-52.hFAP tumors, are shown in Tables 5 to 8 and 13 to 15. Avg.=average; Std.d=standard deviation.

With N#C[C@@H]1CC(F)(F)CN1C(=O)CNC(=O)c1ccnc2c(NC(=O)CCC(=O)NCCNC(=O)CCOCC(COCCC(=O)NCCNC(=O)CCC(=O)Nc3cccc4c(C(=O)NCC(=O)N5CC(F)(F)C[C@H]5C#N)ccnc34)(COCCC(=O)NCCNC(=O)CCC(=O)Nc3cccc4c(C(=O)NCC(=O)N5CC(F)(F)C[C@H]5C#N)ccnc34)NC(=O)CCOCC(COCCC(=O)NC(COCCC(=O)NCCNC(=O)CCC(=O)Nc3cccc4c(C(=O)NCC(=O)N5CC(F)(F)C[C@H]5C#N)ccnc34)(COCCC(=O)NCCNC(=O)CCC(=O)Nc3cccc4c(C(=O)NCC(=O)N5CC(F)(F)C[C@H]5C#N)ccnc34)COCCC(=O)NCCNC(=O)CCC(=O)Nc3cccc4c(C(=O)NCC(=O)N5CC(F)(F)C[C@H]5C#N)ccnc34)NC(=O)CCC(C(=O)O)N3CCN(CC(=O)[O-])CCN(CC(=O)[O-])CCN(CC(=O)[O-])CC3)cccc12.[177Lu+3] (stereo partly drawn) [^177Lu-Hexa-ESV6-DOTAGA] the “Tumor to organs ratio, Blood” value (6 h) was 7.84, the “Injected dose per gram, Blood” value (6 h post injection) was 0.36 % ID/g and the “Tumor to organs ratio, Blood” value (24 h) was 17.77. The “Injected dose per gram, Blood” value (24 h post injection) was 0.10 % ID/g, the “Tumor to organs ratio, Blood” value (96 h) was 85.06 and the “Injected dose per gram, Blood” value (96 h post injection) was 0.02 % ID/g. For the same molecule, the “Tumor to organs ratio, Heart” value (6 h) was 8.50, the “Injected dose per gram, Heart” value (6 h post injection) was 0.33 % ID/g and the “Tumor to organs ratio, Heart” value (24 h) was 7.90. The “Injected dose per gram, Heart” value (24 h post injection) was 0.23 % ID/g, the “Tumor to organs ratio, Heart” value (96 h) was 8.99 and the “Injected dose per gram, Heart” value (96 h post injection) was 0.16 % ID/g. The “Tumor to organs ratio, Intestine” value (6 h) was 13.86, the “Injected dose per gram, Intestine” value (6 h post injection) was 0.24 % ID/g and the “Tumor to organs ratio, Intestine” value (24 h) was 20.76. The “Injected dose per gram, Intestine” value (24 h post injection) was 0.10 % ID/g, the “Tumor to organs ratio, Intestine” value (96 h) was 20.47 and the “Injected dose per gram, Intestine” value (96 h post injection) was 0.07 % ID/g. The “Tumor to organs ratio, Kidney” value (6 h) was 5.24, the “Injected dose per gram, Kidney” value (6 h post injection) was 0.53 % ID/g and the “Tumor to organs ratio, Kidney” value (24 h) was 3.37. For the same molecule, the “Injected dose per gram, Kidney” value (24 h post injection) was 0.57 % ID/g, the “Tumor to organs ratio, Kidney” value (96 h) was 0.99 and the “Injected dose per gram, Kidney” value (96 h post injection) was 1.37 % ID/g. The “Tumor to organs ratio, Liver” value (6 h) was 0.04, the “Injected dose per gram, Liver” value (6 h post injection) was 62.54 % ID/g and the “Tumor to organs ratio, Liver” value (24 h) was 0.03. For the same molecule, the “Injected dose per gram, Liver” value (24 h post injection) was 53.45 % ID/g, the “Tumor to organs ratio, Liver” value (96 h) was 0.03 and the “Injected dose per gram, Liver” value (96 h post injection) was 49.80 % ID/g. For the same molecule, the “Tumor to organs ratio, Lung” value (6 h) was 0.43, the “Injected dose per gram, Lung” value (6 h post injection) was 6.91 % ID/g and the “Tumor to organs ratio, Lung” value (24 h) was 0.34. For the same molecule, the “Injected dose per gram, Lung” value (24 h post injection) was 5.33 % ID/g, the “Tumor to organs ratio, Lung” value (96 h) was 1.10 and the “Injected dose per gram, Lung” value (96 h post injection) was 1.38 % ID/g. For the same molecule, the “Tumor to organs ratio, Muscle” value (6 h) was 9.52, the “Injected dose per gram, Muscle” value (6 h post injection) was 0.66 % ID/g and the “Tumor to organs ratio, Muscle” value (24 h) was 13.70. The “Injected dose per gram, Muscle” value (24 h post injection) was 0.14 % ID/g, the “Tumor to organs ratio, Muscle” value (96 h) was 35.84 and the “Injected dose per gram, Muscle” value (96 h post injection) was 0.05 % ID/g. The “Tumor to organs ratio, Spleen” value (6 h) was 0.07, the “Injected dose per gram, Spleen” value (6 h post injection) was 41.26 % ID/g and the “Tumor to organs ratio, Spleen” value (24 h) was 0.04. For the same molecule, the “Injected dose per gram, Spleen” value (24 h post injection) was 47.44 % ID/g, the “Tumor to organs ratio, Spleen” value (96 h) was 0.04 and the “Injected dose per gram, Spleen” value (96 h post injection) was 38.61 % ID/g. The “Tumor to organs ratio, Tail” value (6 h) was 4.76, the “Injected dose per gram, Tail” value (6 h post injection) was 0.70 % ID/g and the “Tumor to organs ratio, Tail” value (24 h) was 1.39. For the same molecule, the “Injected dose per gram, Tail” value (24 h post injection) was 1.65 % ID/g, the “Tumor to organs ratio, Tail” value (96 h) was 2.03 and the “Injected dose per gram, Tail” value (96 h post injection) was 1.02 % ID/g. The “Injected dose per gram, Tumor” value (6 h post injection) was 2.77 % ID/g, the “Injected dose per gram, Tumor” value (24 h post injection) was 1.80 % ID/g and the “Injected dose per gram, Tumor” value (96 h post injection) was 1.36 % ID/g.
